# From patent publication US20070191460A1, “Use of Benzo-Heteroaryl Sulfamide Derivatives for the Treatment of Disease Modification / Epileptogenesis” (priority 2006, published 2007)
# System: amygdala kindled rat model of partial epilepsy
# Test: In Vivo, Amygdala Kindling Assay
# Set-up: species or system Sprague-Dawley rats
# Source text: The development of amygdala kindling is an established model of epileptogenesis. (Amano K, Hamada K, Yagi K, Seino M. Antiepileptic effects of topiramate on amygdaloid kindling in rats. Epilepsy Res. 1998 July;31(2):123-8; Barton M E, White H S. The effect of CGX-1007 and CI-1041, novel NMDA receptor antagonists, on kindling acquisition and expression. Epilepsy Res. 2004 March;59(1):1-12; Loscher W, Honack D, Rundfeldt C. Antiepileptogenic effects of the novel anticonvulsant levetiracetam (ucb L059)in the kindling model of temporal lobe epilepsy. J Pharmacol Exp Ther. 1998 February;284(2):474-9; McNamara J O. Analyses of the molecular basis of kindling development. Psychiatry Clin Neurosci. 1995 June; 49(3):S175-8. Review.; Morimoto K, Katayama K, Inoue K, Sato K. Effects of competitive and noncompetitive NMDA receptor antagonists on kindling and LTP. Pharmacol Biochem Behav. 1991 December;40(4):893-9; Racine, R. J. 1972. Modification of seizure activity by electrical stimulation. II. Motor seizure. Electroencephalogr. Clin. Neurophysiol. 32, 281-294). The kindled rat model of partial epilepsy is an accepted model of epileptogenesis (McNamara J O. Analyses of the molecular basis of kindling development. Psychiatry Clin Neurosci. 1995 June;49(3):S175-8. Review.).
# Briefly, the assay procedure was as follows. Adult male, Sprague-Dawley rats weighing between 250-300 g were obtained from Charles River, Wilmington, Mass. were used for experimental procedures. All animals were housed on a 12:12 light dark cycle and permitted free access to both food (Prolab RMH 3000) and water except when removed from the home cage for experimental procedures. Animals were cared for in a matter consistent with the recommendations detailed in the National Research Council Publication, “Guide for the Care and Use of Laboratory Animals” in a temperature controlled, pesticide-free facility. Kindling stimulations were routinely performed between 9 AM-2 PM to avoid any circadian variations.
# Compound #1 was triturated in a small volume of 0.5% methylcellulose, sonicated for 10 min, and brought to a final volume with 0.5% methylcellulose. The compound was administered systemically (i.p.) in a volume of 0.04 ml/10 g body weight and all tests were conducted at the pre-determined time of peak effect of 0.5 hours after i.p. administration.
# The ability of Compound #1 to block the expression of amygdala kindled seizures was determined. For this study, rats were anaesthetized with a ketamine (120 mg/kg, i.p.) and xylazine (12 mg/kg, i.p.) cocktail. […]
# Amygdala kindling was then performed according to the following protocol (Barton and White, 2004). […] The behavioral seizure score and AD duration was recorded for rats in each treatment group. […]
smiles,measurement,setting,value
"NS(=O)(=O)NCc1csc2ccccc12 [Compound #1, N-(benzo[b]thien-3-ylmethyl)-sulfamide]",behavioral seizure score (Racine scale) at the conclusion of the drug- and stimulus-free period,"100 mg/kg i.p. 30 min before daily amygdala stimulation (200 μA, 2 s) for up to 13 days, re-challenged without drug after one-week stimulus- and drug-free period, n=10 rats, vehicle=4.6±0.24",0.1±0.11
same,"after-discharge (AD) duration over the kindling acquisition phase, versus vehicle","100 mg/kg i.p., daily stimulation, days 1-13, progressive increase in both groups",No statistical difference
same,acquisition of the full generalized kindled seizure,"100 mg/kg i.p., rats, kindling acquisition",prevented the acquisition of the full generalized kindled seizure
same,delay of the acquisition of kindling,"stimulated in the absence of drug after the drug-free week, seizure score rose parallel to vehicle-treated rats",delayed the acquisition of kindling by several days
